US20250042922A1, “KRAS MODULATING COMPOUNDS” (priority 2023, published 2025)

Key:
[1] = biological target: GDP-loaded wild-type KRAS (WT) (Homo sapiens, UniProt P01116); assay: KRAS (GDP) biochemical TR-FRET probe displacement assay, WT; assay type: binding; conditions: 2 hours
Method: (§1) Compounds are tested for binding to GDP-loaded wild-type KRAS (WT), KRAS-G12C, KRAS-G12D, and KRAS-G12V in a 384-well assay format using a TR-FRET probe displacement assay in buffer consisting of 50 mM Hepes (pH 7.4), 150 mM NaCl, 5 mM MgCl2 and 0.005% Tween-20. […] Compounds are serially diluted (1:3) in DMSO. The LabCyte ECHO Acoustic dispenser was used to pre-spot the assay plates (384-well Non-Binding Surface plates, Corning, Catalog #3824) with 50 nL of compound. 5 μL of 2X enzyme concentration is added to the pre-spotted plates and incubated for 30 minutes before adding 5 μL of 2X concentration of Eu-streptavidin and Cy-5 labelled probe (10 μL final reaction volume). The plates are incubated at room temperature for 2 hours before measuring TR-FRET ratio (665 nm/615 nm) on the Envision multimode plate reader. The ratios are normalized to a positive (saturating concentration of known inhibitor) and negative (DMSO) control and plotted against the log of compound concentration.

GDP-loaded KRAS-G12C = GDP-loaded KRAS-G12C (Homo sapiens, UniProt P01116, G12C); assay: KRAS (GDP) biochemical TR-FRET probe displacement assay, G12C; assay type: binding; conditions: 2 hours
Method: as §1

[2] = test system: cellular pERK in ASPC-1 (KRAS G12D) cells; assay: Cell based pERK assay, ASPC-1; conditions: Homo sapiens, ASPC1; ASPC-1 (KRAS G12D), 2 hours incubation, HTRF phospho-ERK1/2; read-out: AsPC1 pERK EC50
Outline: (§2)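 Cells seeded overnight (5000 AsPC-1 or 7500 others per well; RPMI/10% FBS, DMEM/10% FBS for MIA-PaCa-2), treated with 1:3 serial dilutions for 2 h at 37 °C. Phospho-ERK1/2 (Thr202/Tyr204) measured by HTRF (665/615 nm) after overnight lysis, normalized to DMSO and saturating known-inhibitor controls.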

[3] = test system: cellular pERK in NCI-H441 (KRAS-G12V) cells; assay: Cell based pERK assay, NCI-H441; conditions: Homo sapiens; NCI-H441 (KRAS-G12V), 2 hours incubation, HTRF phospho-ERK1/2; read-out: H441 PERK EC50
Outline: as §2

[4] = test system: cellular pERK in Kuramochi (WT KRAS) cells; assay: Cell based pERK assay, Kuramochi; conditions: Kuramochi (WT KRAS), 2 hours incubation, HTRF phospho-ERK1/2; read-out: Kuramochi pERK EC50
Outline: as §2

[5] = test system: cellular pERK in MIA-PaCa-2 (KRAS-G12C) cells; assay: Cell based pERK assay, MIA-PaCa-2; conditions: Homo sapiens; MIA-PaCa-2 (KRAS-G12C), 2 hours incubation, HTRF phospho-ERK1/2; read-out: MIAPaCa2 pERK EC50
Outline: as §2

GDP-loaded KRAS-G12V = GDP-loaded KRAS-G12V (Homo sapiens, UniProt P01116, G12V); assay: KRAS (GDP) biochemical TR-FRET probe displacement assay, G12V; assay type: binding; conditions: 2 hours
Method: as §1

GDP-loaded KRAS-G12D = GDP-loaded KRAS-G12D (Homo sapiens, UniProt P01116, G12D); assay: KRAS (GDP) biochemical TR-FRET probe displacement assay, G12D; assay type: binding; conditions: 2 hours
Method: as §1

GDP-loaded KRAS-G12V, sequence (P01116 1-188 isoform P01116-2 G12V): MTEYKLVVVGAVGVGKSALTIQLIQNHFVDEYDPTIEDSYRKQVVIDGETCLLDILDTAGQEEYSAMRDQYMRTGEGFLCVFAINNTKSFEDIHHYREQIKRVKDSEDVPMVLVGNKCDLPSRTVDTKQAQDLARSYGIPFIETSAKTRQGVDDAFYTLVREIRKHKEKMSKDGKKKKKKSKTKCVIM
GDP-loaded KRAS-G12C, sequence (P01116 1-188 isoform P01116-2 G12C): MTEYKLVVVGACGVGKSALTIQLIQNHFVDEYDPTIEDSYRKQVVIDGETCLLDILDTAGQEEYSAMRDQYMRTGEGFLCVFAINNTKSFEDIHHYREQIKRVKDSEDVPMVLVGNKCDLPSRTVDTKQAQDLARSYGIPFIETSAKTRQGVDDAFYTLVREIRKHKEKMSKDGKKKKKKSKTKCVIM
GDP-loaded KRAS-G12D, sequence (P01116 1-188 isoform P01116-2 G12D): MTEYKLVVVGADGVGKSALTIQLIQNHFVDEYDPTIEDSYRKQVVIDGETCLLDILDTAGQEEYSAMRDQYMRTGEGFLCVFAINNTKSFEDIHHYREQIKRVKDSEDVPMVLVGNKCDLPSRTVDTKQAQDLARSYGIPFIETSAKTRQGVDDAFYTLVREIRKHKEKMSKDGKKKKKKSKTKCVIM
GDP-loaded wild-type KRAS (WT), sequence (P01116 1-188 isoform P01116-2): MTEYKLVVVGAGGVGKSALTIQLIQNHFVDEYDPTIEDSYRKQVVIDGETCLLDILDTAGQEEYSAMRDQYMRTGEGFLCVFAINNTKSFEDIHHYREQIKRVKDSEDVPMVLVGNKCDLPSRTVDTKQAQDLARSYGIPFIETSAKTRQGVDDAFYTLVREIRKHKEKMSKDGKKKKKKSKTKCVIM

C#Cc1c(F)ccc2cc(O)cc(-c3c(F)c4c5c(nc(OC[C@@]67CCCN6C[C@H](F)C7)nc5c3F)N3C[C@@]5(F)CC[C@H](N5)[C@H]3CC4)c12 [Example 4-41, 5-ethynyl-6-fluoro-4-((1S,4S,14aR)-4,10,12-trifluoro-8-(((2R,7aS)-2-fluorotetrahydro-1H-pyrrolizin-7a(5H)-yl)methoxy)-1,2,3,4,5,13,14,14a-octahydro-1,4-epiminoazepino[1′,2′:1,7]azepino[2,3,4-de]quinazolin-11-yl)naphthalen-2-ol]
IC50 [1]: 0.5 nM | IC50 (GDP-loaded KRAS-G12C): 0.386 nM | EC50 [2]: 29.7 nM | EC50 [3]: 4.42 nM | EC50 [4]: 8.27 nM | EC50 [5]: 0.501 nM | IC50 (GDP-loaded KRAS-G12V): 0.949 nM | IC50 (GDP-loaded KRAS-G12D): 1.41 nM

C[C@H]1Cc2nc(-c3cc(N)cc4ccc(F)c(Cl)c34)c(F)c3nc(OCC45CCCN4CCC5)nc(c23)N2C[C@@]3(F)CC[C@](F)(N3)[C@H]12 [Example 5-3]
IC50 [1]: 0.266 nM | IC50 (GDP-loaded KRAS-G12C): 1.55 nM | EC50 [2]: 31.3 nM | EC50 [3]: 9.64 nM | EC50 [4]: 1.45 nM | EC50 [5]: 0.897 nM | IC50 (GDP-loaded KRAS-G12V): 2.96 nM | IC50 (GDP-loaded KRAS-G12D): 7.83 nM

Nc1cc(-c2nc3c4c(nc(OCC56CCCN5CCC6)nc4c2F)N2C[C@@]4(F)CC[C@](F)(N4)[C@H]2CCC3)c2c(OC(F)(F)F)c(F)ccc2c1 [Example 5-5, 6-fluoro-4-[(4S,7R,8R)-4,7,15-trifluoro-18-(1,2,3,5,6,7-hexahydropyrrolizin-8-ylmethoxy)-2,13,17,19,21-pentazapentacyclo[10.7.1.14,7.02,8.016,20]henicosa-1(19),12(20),13,15,17-pentaen-14-yl]-5-(trifluoromethoxy)naphthalen-2-amine]
IC50 [1]: 18.5 nM | IC50 (GDP-loaded KRAS-G12C): 21.6 nM | EC50 [2]: 519 nM | EC50 [3]: 221 nM | EC50 [4]: 5.9 nM | EC50 [5]: 33.6 nM | IC50 (GDP-loaded KRAS-G12V): 85 nM | IC50 (GDP-loaded KRAS-G12D): ≥ 100 nM

C#Cc1c(F)c(F)cc2cc(N)cc(-c3nc4c5c(nc(OCC67CCCN6CCC7)nc5c3F)N3C[C@@]5(F)CC[C@](F)(N5)[C@@H]3[C@@H](C)C4)c12 [Example 5-7, 5-ethynyl-6,7-difluoro-4-((5S,5aS,6R,9S)-1,6,9-trifluoro-5-methyl-12-((tetrahydro-1H-pyrrolizin-7a(5H)-yl)methoxy)-4,5,5a,6,7,8,9,10-octahydro-3,10a,11,13,14-pentaaza-6,9-methanonaphtho[1,8-ab]heptalen-2-yl)naphthalen-2-amine]
IC50 [1]: 0.116 nM | IC50 (GDP-loaded KRAS-G12C): 0.311 nM | EC50 [2]: 12.4 nM | EC50 [3]: 3.1 nM | EC50 [4]: 2.75 nM | EC50 [5]: 0.378 nM | IC50 (GDP-loaded KRAS-G12V): 0.723 nM | IC50 (GDP-loaded KRAS-G12D): 1.03 nM
